Assay results reported in publication PMC10914731, “Homo-BacPROTAC-induced degradation of ClpC1 as a strategy against drug-resistant mycobacteria” (Nature Communications, 2024).
Where “and” joins values, the source holds several entries; their conditions need not be identical. Equal values may be shown once. Read-outs that look alike come from different tables or passages of the source. *1 amine or outer side, *2 acyl side, *3 side chain or, on linkers, in order; H or OH if unused. Where a SMILES comes first, the peptide text is derived from it. Bridges are numbered along the chain shown (N, C = ends). Roman numbers before positions name the chains, in order. [ ]: non-standard residue; d: D form. X6 = O=C([C@@H](N[*:1])[C@H](OCC=[*:3])c1ccccc1)[*:2]; NMeLeu(5-OH,4R) = CN[C@@H](C[C@@H](C)CO)C(=O)O; Trp(1-Me) = Cn1cc(C[C@H](N)C(=O)O)c2ccccc21; NMeL = CN[C@@H](CC(C)C)C(=O)O

Experiments:
[1] = molecular target: ClpC1 NTD protein (M. tuberculosis) (Mycobacterium tuberculosis, UniProt P9WPC9); test: biochemical; assay type: binding
ClpC1 NTD protein (M. tuberculosis), sequence (P9WPC9 1-156, looked up, natural form): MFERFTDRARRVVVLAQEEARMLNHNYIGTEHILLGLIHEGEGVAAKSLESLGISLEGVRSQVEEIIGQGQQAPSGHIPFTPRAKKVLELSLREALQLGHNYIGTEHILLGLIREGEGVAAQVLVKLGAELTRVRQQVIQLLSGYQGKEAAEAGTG

[2] = in vitro; conditions: human
Summary of the method: (§1)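 Values are bidirectional Caco-2 apparent permeabilities, P(A−B) and P(B−A), given in 10^-6 cm s-1. The efflux ratio divides P(B−A) by P(A−B), and intrinsic permeability averages the two directions.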

[3] = tested on: Caco-2 monolayers; test: in vitro; conditions: mean value of P(A−B) and P(B−A)
Summary of the method: as §1

[4] = assay type: in vitro ADME, Mice
Summary of the method: (§2)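 Clearance, expressed as % liver blood flow (%Qh), derived by the well-stirred model from first-order half-lives. Depletion monitored by HPLC-MS/MS in acetonitrile-stopped samples over time; 37 °C, NADPH 1 mM, microsomes 0.5 mg/ml, compound 1 µmol/l, Tris-HCl pH 7.5 with MgCl2.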

[5] = assay type: in vitro ADME, Rat
Summary of the method: as §2

[6] = Microsomal stability, human; assay type: in vitro ADME
Summary of the method: as §2

[7] = Hepatocyte stability, mice; assay type: in vitro ADME
Summary of the method: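 1 µM cpd (DMSO <0.05% final), cryopreserved hepatocytes ~1e6 cells/mL, 50% serum, pH 7.4, 37 °C/5–10% CO2; up to 6 h, 6 timepoints; ACN quench, HPLC-MS/MS; t1/2 → CL via well-stirred model, % Qh.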

[8] = assay type: in vitro ADME, Rat; remark: listed apart in the source
[9] = molecular target: His6-tagged ClpC1-NTD substrate, M. smegmatis ClpC1P1P2 (UniProt A0R574+P9WPC9); test: biochemical; assay type: biochemical; conditions: Msm; Measurement 1-6; read-out: 1-Dmax, single measurements
His6-tagged ClpC1-NTD substrate, M. smegmatis ClpC1P1P2, sequence (P9WPC9 1-156, looked up, natural form): as above
His6-tagged ClpC1-NTD substrate, M. smegmatis ClpC1P1P2, sequence (A0R574 whole entry): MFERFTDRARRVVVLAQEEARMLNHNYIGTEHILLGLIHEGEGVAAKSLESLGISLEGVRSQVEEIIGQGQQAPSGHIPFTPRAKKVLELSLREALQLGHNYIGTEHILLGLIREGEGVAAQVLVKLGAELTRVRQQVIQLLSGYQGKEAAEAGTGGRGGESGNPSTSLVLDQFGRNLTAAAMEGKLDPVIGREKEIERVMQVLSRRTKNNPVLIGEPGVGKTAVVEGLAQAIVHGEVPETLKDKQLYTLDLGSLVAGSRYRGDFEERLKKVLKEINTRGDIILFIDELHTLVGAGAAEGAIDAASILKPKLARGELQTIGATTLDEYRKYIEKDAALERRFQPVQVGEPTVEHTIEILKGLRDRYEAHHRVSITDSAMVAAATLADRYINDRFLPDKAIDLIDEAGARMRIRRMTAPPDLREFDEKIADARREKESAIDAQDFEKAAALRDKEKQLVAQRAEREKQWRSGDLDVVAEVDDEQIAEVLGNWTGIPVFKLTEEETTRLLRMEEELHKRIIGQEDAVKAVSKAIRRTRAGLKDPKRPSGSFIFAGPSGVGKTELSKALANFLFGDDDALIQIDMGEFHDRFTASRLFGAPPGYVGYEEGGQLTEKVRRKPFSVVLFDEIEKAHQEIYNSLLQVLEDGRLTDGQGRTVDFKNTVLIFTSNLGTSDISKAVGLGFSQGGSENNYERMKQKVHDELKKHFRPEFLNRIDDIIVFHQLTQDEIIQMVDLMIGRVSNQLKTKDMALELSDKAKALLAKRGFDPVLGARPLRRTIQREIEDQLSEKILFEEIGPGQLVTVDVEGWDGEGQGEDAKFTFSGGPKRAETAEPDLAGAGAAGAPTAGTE

[10] = molecular target: ClpC1-NTD substrate, M. tuberculosis ClpC1P1P2 (Mycobacterium tuberculosis, UniProt P9WPC9); test: biochemical; assay type: biochemical; conditions: Mtb
ClpC1-NTD substrate, M. tuberculosis ClpC1P1P2, sequence (P9WPC5 whole entry): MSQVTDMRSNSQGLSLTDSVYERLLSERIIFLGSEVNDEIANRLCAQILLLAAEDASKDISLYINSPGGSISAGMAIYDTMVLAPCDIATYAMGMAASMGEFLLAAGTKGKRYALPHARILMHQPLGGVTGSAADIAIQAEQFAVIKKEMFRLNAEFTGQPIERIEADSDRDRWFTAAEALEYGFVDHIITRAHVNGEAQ
ClpC1-NTD substrate, M. tuberculosis ClpC1P1P2, sequence (P9WPC9 whole entry): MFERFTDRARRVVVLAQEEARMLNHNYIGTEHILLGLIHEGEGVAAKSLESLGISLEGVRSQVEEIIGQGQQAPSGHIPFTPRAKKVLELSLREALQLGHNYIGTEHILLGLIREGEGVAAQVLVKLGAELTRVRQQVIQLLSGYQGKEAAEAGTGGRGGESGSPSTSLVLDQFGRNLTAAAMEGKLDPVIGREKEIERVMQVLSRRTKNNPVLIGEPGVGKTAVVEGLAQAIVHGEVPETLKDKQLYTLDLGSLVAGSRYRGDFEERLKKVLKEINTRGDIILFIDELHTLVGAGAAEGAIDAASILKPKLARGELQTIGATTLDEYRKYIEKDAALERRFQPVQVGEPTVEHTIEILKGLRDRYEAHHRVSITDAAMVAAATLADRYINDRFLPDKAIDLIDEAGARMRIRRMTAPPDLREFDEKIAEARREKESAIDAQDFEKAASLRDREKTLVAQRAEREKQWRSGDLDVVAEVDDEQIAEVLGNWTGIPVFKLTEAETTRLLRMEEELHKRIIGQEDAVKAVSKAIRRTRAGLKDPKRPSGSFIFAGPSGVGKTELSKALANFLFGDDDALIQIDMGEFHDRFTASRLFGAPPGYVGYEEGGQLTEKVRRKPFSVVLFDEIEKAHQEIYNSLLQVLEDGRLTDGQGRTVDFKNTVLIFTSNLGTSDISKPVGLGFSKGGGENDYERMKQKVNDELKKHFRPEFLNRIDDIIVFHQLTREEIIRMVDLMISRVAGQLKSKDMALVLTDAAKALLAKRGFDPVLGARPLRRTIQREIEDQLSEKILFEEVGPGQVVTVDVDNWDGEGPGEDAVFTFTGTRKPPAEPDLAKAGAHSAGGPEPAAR
ClpC1-NTD substrate, M. tuberculosis ClpC1P1P2, sequence (P9WPC3 whole entry, further chain): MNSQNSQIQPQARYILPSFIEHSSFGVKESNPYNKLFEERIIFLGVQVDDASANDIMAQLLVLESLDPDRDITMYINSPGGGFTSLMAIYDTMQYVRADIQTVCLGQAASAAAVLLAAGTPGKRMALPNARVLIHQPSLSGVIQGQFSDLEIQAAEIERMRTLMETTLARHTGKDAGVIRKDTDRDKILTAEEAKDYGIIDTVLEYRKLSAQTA

[11] = result in words

CC(C)C[C@H]1C(=O)N[C@@H](C(C)C)C(=O)N[C@@H](Cc2cn(C)c3ccccc23)C(=O)N(C)[C@@H](C[C@@H](C)CO)C(=O)N[C@@H](C)C(=O)N[C@@H]([C@H](OC/C=C/CO[C@H](c2ccccc2)[C@@H]2NC(=O)[C@H](C)NC(=O)[C@H](C[C@@H](C)CO)N(C)C(=O)[C@H](Cc3cn(C)c4ccccc34)NC(=O)[C@H](C(C)C)NC(=O)[C@H](CC(C)C)N(C)C(=O)[C@H](C(C)C)NC2=O)c2ccccc2)C(=O)N[C@@H](C(C)C)C(=O)N1C [Compound 17] (I: cyclo(A[X6]V[NMeL]V[Trp(1-Me)][NMeLeu(5-OH,4R)]) / II: cyclo(A[X6]V[NMeL]V[Trp(1-Me)][NMeLeu(5-OH,4R)]); staple (E) I:2-II:2)
Kd ([1]; SPR (Supplementary Table 1), read-out: KD ClpC1-NTD Mean ± SD): 0.023 ± 0.005 µM | koff ClpC1-NTD ([1]; SPR, single independent measurements): 0.004 s⁻¹ | Kd ([1]; SPR, single independent measurements, read-out: KD ClpC1-NTD): 0.0267 µM and 0.019 µM | koff ([1]; SPR, single independent measurements, read-out: koff ClpC1-NTD): 0.005 s⁻¹ | Papp A→B ([2]; Caco-2, CACO permeability PEAB, apical to basolateral): < 2.5 ×10⁻⁶ cm/s | Papp B→A ([2]; Caco-2, Caco-2 permeability P (B-A), basolateral to apical): 0.9 ×10⁻⁶ cm/s | Caco-2 Int. Perm [3]: 1.7 10-6 cm s-1 | Microsomal Stability Mouse QH ([4]; Mouse): <24.200% | Microsomal Stability Mice ([4]; clearance in microsomes): < 24 %Qh | Microsomal Stability Rat QH ([5]; Rat): <23.100% | Microsomal Stability Rat ([5]; clearance in microsomes): < 23 %Qh | Microsomal Stability Human QH ([6]; Human): <24.400% | Microsomal Stability Human ([6]; clearance in microsomes): < 24 %Qh | Hepatocyte Stability Mouse QH ([7]; Mouse): 20.539% | Hepatocyte Mice ([7]; clearance in hepatocytes): 21 %Qh | Hepatocyte Stability Rat QH ([8]; Rat): 12.036% | Hepatocyte Rat ([8]; clearance in hepatocytes): 12 %Qh | 1-Dmax (percent substrate remaining at maximal degradation) [9]: 30.2% | DC50 ([10]; Measurement 1-4, read-out: DC50, single measurements): > 100 µM | DC50 ([10]; mean of the measurements, read-out: DC50, Mean): > 100 µM | stability upon storage [11]: compound decomposition upon storage
